According to patent publication US5420140A, “Difluorinated quinolones useful for treating bacterial infections” (Bouchara S.A., priority 1991, dated 1995):
In brackets after ≈: the same amount, converted by molar mass.

Columns and labels:
[1] = tested on: Bacillus subtilis ATCC 9372; test: Determination of MIC and MBC by microdilution method, Bacillus subtilis ATCC 9372; format: cell-based; settings: for MIC: ATCC9372, Mueller-Hinton broth, read-out: Minimal inhibitory concentration (MIC); for MIC / Minimal inhibitory concentration (MIC): 18 hours at 37°; for MBC: ATCC9372, read-out: Minimal bactericidal concentration (MBC); for Minimal inhibitory concentration (MIC): Mueller-Hinton broth
Protocol: (§1) The compound have been tested towards 7 reference strains:
Bacillus subtilis ATCC 9372
(§2) The determination of minimal inhibitory concentrations (MIC) has been performed using a microdution method (microplates and inoculator Dynatech) in liquid medium (MUELLER-HINTON broth) under a volume of 100 μl and for a range of concentrations from 128 to 0.06 mg/l, prepared from a mother liquor of antibiotics titrating 512 mg/l. The preparation of these mother liquors has been performed and vary depending on the molecules as a function of the solubility criterions. Inoculation has been done by adding in each will, 10 μl of a dilution in saline of 18 hours old broth in a brain-heart broth, such as each well contains about 10^6 bacterias/ml.
(§3) The Minimal Inhibitory Concentrations are read as the first concentration of antibiotic which will not give a growth macroscopically detectable after 18 hours incubating at 37°.

[2] = tested on: Staphylococcus aureus ATCC 25923; test: Determination of MIC and MBC by microdilution method, Staphylococcus aureus ATCC 25923; format: cell-based; settings: for MIC / MBC: Staphylococcus aureus; for MIC: ATCC25923, 18 h, read-out: Minimal inhibitory concentration (MIC); for MIC / Minimal bactericidal concentration (MBC) / Minimal inhibitory concentration (MIC): S. aureus ATCC 25923; for MIC / Minimal inhibitory concentration (MIC): Mueller-Hinton broth, 18 hours at 37°; for MBC: ATCC25923, S. aureus ATCC 25923, read-out: Minimal bactericidal concentration (MBC)
Protocol: as §1
Staphylococcus aureus ATCC 25923
as §2, §3

[3] = tested on: Streptococcus faecalis ATCC 8043; test: Determination of MIC and MBC by microdilution method, Streptococcus faecalis ATCC 8043; format: cell-based; settings: for MBC / MIC: Enterococcus faecalis; for MBC: ATCC8043, S. faecalis ATCC 8043, read-out: Minimal bactericidal concentration (MBC); for MIC: ATCC8043, read-out: Minimal inhibitory concentration (MIC); for MIC / Minimal bactericidal concentration (MBC) / Minimal inhibitory concentration (MIC): S. faecalis ATCC 8043; for MIC / Minimal inhibitory concentration (MIC): Mueller-Hinton broth, 18 hours at 37°
Protocol: as §1
Streptococcus faecalis ATCC 8043
(§4) The preparation of these mother liquors has been performed and vary depending on the molecules as a function of the solubility criterions. Inoculation has been done by adding in each will, 10 μl of a dilution in saline of 18 hours old broth in a brain-heart broth, such as each well contains about 10^6 bacterias/ml. […]

[4] = tested on: Escherichia coli ATCC 25922; test: Determination of MIC and MBC by microdilution method, Escherichia coli ATCC 25922; format: cell-based; settings: E. coli ATCC 25922; for MIC / MBC: Escherichia coli, ATCC25922; for MIC / Minimal inhibitory concentration (MIC): Mueller-Hinton broth, 18 hours at 37°; for MIC: read-out: Minimal inhibitory concentration (MIC); for MBC: read-out: Minimal bactericidal concentration (MBC)
Protocol: as §1
Escherichia coli ATCC 25922
as §2, §3

[5] = tested on: Pseudomonas aeruginosa ATCC 22853; test: Determination of MIC and MBC by microdilution method, Pseudomonas aeruginosa ATCC 22853; format: cell-based; settings: for MIC / MBC: Pseudomonas aeruginosa; for MIC: ATCC22853, 18 h, read-out: Minimal inhibitory concentration (MIC); for MIC / Minimal bactericidal concentration (MBC) / Minimal inhibitory concentration (MIC): P. aeruginosa ATCC 22853; for MIC / Minimal inhibitory concentration (MIC): Mueller-Hinton broth, 18 hours at 37°; for MBC: ATCC22853, P. aeruginosa ATCC 22853, read-out: Minimal bactericidal concentration (MBC)
Protocol: as §1
Pseudomonas aeruginosa ATCC 22853
as §4

[6] = tested on: Acinetobacter Baumanii ATCC 17904; test: Determination of MIC and MBC by microdilution method, Acinetobacter; format: cell-based; settings: for MIC / MBC: Acinetobacter baumannii; for MIC: ATCC17904, 18 h, read-out: Minimal inhibitory concentration (MIC); for MIC / Minimal bactericidal concentration (MBC) / Minimal inhibitory concentration (MIC): Acinetobacter Baumanii ATCC 17904; for MIC / Minimal inhibitory concentration (MIC): Mueller-Hinton broth, 18 hours at 37°; for MBC: ATCC17904, Acinetobacter Baumanii ATCC 17904, read-out: Minimal bactericidal concentration (MBC)
Protocol: The compound have been tested towards 7 reference strains: […]
as §2, §3

S. aureus CB-951 = test: Determination of MIC and MBC by microdilution method, S. aureus CB-951; format: cell-based, Staphylococcus aureus; settings: erythromycinolincomycino, pefloxacino resistant; for MIC / MBC: Staphylococcus aureus; for MIC: CB951, 18 h, read-out: Minimal inhibitory concentration (MIC); for MIC / Minimal bactericidal concentration (MBC) / Minimal inhibitory concentration (MIC): S. aureus CB-951, methicillino; for MIC / Minimal inhibitory concentration (MIC): Mueller-Hinton broth, 18 hours at 37°; for MBC: CB951, S. aureus CB-951, methicillino, read-out: Minimal bactericidal concentration (MBC)
Protocol: as §1
Staphylococcus aureus CB 951
as §2, §3

Compound | MIC [2] [µg/mL] | MBC [2] [µg/mL] | MBC [3] [µg/mL] | MIC [3] [µg/mL] | MIC [4] [µg/mL] | MBC [4] [µg/mL] | MIC [5] [µg/mL] | MBC [5] [µg/mL] | MIC [6] [µg/mL] | MBC [6] [µg/mL] | MIC (S. aureus CB-951) [µg/mL] | MBC (S. aureus CB-951) [µg/mL] | Minimal bactericidal concentration (MBC) [2] | Minimal inhibitory concentration (MIC) [2] | Minimal bactericidal concentration (MBC) [3] | Minimal inhibitory concentration (MIC) [3] | Minimal bactericidal concentration (MBC) [4] | Minimal inhibitory concentration (MIC) [4] | Minimal bactericidal concentration (MBC) [5] [µg/mL] | Minimal inhibitory concentration (MIC) [5] [µg/mL] | further results
CCn1cc(C(=O)O)c(=O)c2cc(F)c(N3CCC(CN)CC3)c(F)c21 [Compound 1, 7-(4-aminomethylpiperidinyl-1) 6,8-difluoro 1-ethyl 4-oxo 1,4-dihydroquinoleinyl-3 carboxylic acid] | 0.25 (≈ 0.684 µM) | 0.25 (≈ 0.684 µM) | 0.5 (≈ 1.37 µM) | 0.5 (≈ 1.37 µM) | 0.5 (≈ 1.37 µM) | 0.5 (≈ 1.37 µM) | 2 (≈ 5.47 µM) | 4 (≈ 10.9 µM) | 0.25 (≈ 0.684 µM) | 0.5 (≈ 1.37 µM) | 2 (≈ 5.47 µM) | 2 (≈ 5.47 µM) |  |  |  |  |  |  |  |  | MIC [1]: 0.25 µg/mL (≈ 0.684 µM); MBC [1]: 0.25 µg/mL (≈ 0.684 µM)
C=CCn1cc(C(=O)O)c(=O)c2cc(F)c(N3CCC(CN)CC3)c(F)c21 [Compound 6, 7-(4-aminomethylpiperidinyl-1) 6,8-difluoro 1-allyl 4-oxo 1,4-dihydroquinoleinyl-3 carboxylic acid] | 1 (≈ 2.65 µM) | 2 (≈ 5.3 µM) | 4 (≈ 10.6 µM) | 1 (≈ 2.65 µM) | 1 (≈ 2.65 µM) | 2 (≈ 5.3 µM) | 8 (≈ 21.2 µM) | 16 (≈ 42.4 µM) | 1 (≈ 2.65 µM) | 2 (≈ 5.3 µM) | 32 (≈ 84.8 µM) | 64 (≈ 170 µM) |  |  |  |  |  |  |  |  | MIC [1]: 1 µg/mL (≈ 2.65 µM); MBC [1]: 2 µg/mL (≈ 5.3 µM)
C=CCn1cc(C(=O)O)c(=O)c2cc(F)c(N3CCC(NC(C)=O)CC3)c(F)c21 [Compound 9, 7-(4-acetylaminopiperidinyl-1) 6,8-difluoro 1-allyl 4-oxo 1,4-dihydroquinoleinyl-3 carboxylic acid] |  |  |  |  |  |  |  |  |  |  |  |  | 4 µg/mL (≈ 9.87 µM) | 1 µg/mL (≈ 2.47 µM) | 16 µg/mL (≈ 39.5 µM) | 4 µg/mL (≈ 9.87 µM) | 32 µg/mL (≈ 78.9 µM) | 16 µg/mL (≈ 39.5 µM) | > 128 | > 128 | Minimal bactericidal concentration (MBC) [1]: 2 µg/mL (≈ 4.93 µM); Minimal inhibitory concentration (MIC) [1]: 1 µg/mL (≈ 2.47 µM); Minimal bactericidal concentration (MBC) [6]: 8 µg/mL (≈ 19.7 µM); Minimal inhibitory concentration (MIC) [6]: 4 µg/mL (≈ 9.87 µM); Minimal bactericidal concentration (MBC) (S. aureus CB-951): 8 µg/mL (≈ 19.7 µM); Minimal inhibitory concentration (MIC) (S. aureus CB-951): 4 µg/mL (≈ 9.87 µM)
C=CCn1cc(C(=O)O)c(=O)c2cc(F)c(N3CCC(CNC(=O)NC(=O)c4ccccc4)CC3)c(F)c21 [Compound 11, 7-[(4-benzoylaminocarboxamidomethyl)piperidinyl-1] 6,8-difluoro 1-allyl 4-oxo 1,4-dihydroquinoleinyl-3 carboxylic acid] |  |  |  |  |  |  |  |  |  |  |  |  | 4 µg/mL (≈ 7.63 µM) | 1 µg/mL (≈ 1.91 µM) | 32 µg/mL (≈ 61 µM) | 16 µg/mL (≈ 30.5 µM) | > 128 µg/mL | 128 µg/mL (≈ 244 µM) | > 128 | 128 (≈ 244 µM) | Minimal bactericidal concentration (MBC) [1]: 1 µg/mL (≈ 1.91 µM); Minimal inhibitory concentration (MIC) [1]: 0,5 μg/ml; Minimal bactericidal concentration (MBC) [6]: 4 µg/mL (≈ 7.63 µM); Minimal inhibitory concentration (MIC) [6]: 1 µg/mL (≈ 1.91 µM); Minimal bactericidal concentration (MBC) (S. aureus CB-951): 4 µg/mL (≈ 7.63 µM); Minimal inhibitory concentration (MIC) (S. aureus CB-951): 4 µg/mL (≈ 7.63 µM)
CCOC(=O)c1ccc(NC(=O)NCC2CCN(c3c(F)cc4c(=O)c(C(=O)O)cn(CC)c4c3F)CC2)cc1 [Compound 15, 7-[4-(4-ethoxycarbonylphenyl)aminocarbonylaminomethylpiperidinyl-1] 6,8-difluoro 1-ethyl] | 0.12 (≈ 0.216 µM) | 0.12 (≈ 0.216 µM) | > 16 | > 16 | > 16 | > 16 | > 16 | > 16 | 0.12 (≈ 0.216 µM) | 0.25 (≈ 0.449 µM) | 1 (≈ 1.8 µM) | 2 (≈ 3.59 µM) |  |  |  |  |  |  |  |  | 
CCn1cc(C(=O)O)c(=O)c2cc(F)c(N3CCC(CNC(=O)Nc4ccc(OC)cc4)CC3)c(F)c21 [Compound 16, 7-[4-(4-methoxyphenyl)aminocarbonylaminomethylpiperidinyl-1] 6,8-difluoro1-ethyl] | 0.06 (≈ 0.117 µM) | 0.06 (≈ 0.117 µM) | 16 (≈ 31.1 µM) | 8 (≈ 15.5 µM) | 16 (≈ 31.1 µM) | 16 (≈ 31.1 µM) | > 16 | > 16 | 0.06 (≈ 0.117 µM) | 0.03 (≈ 0.0583 µM) | 0.5 (≈ 0.972 µM) | 1 (≈ 1.94 µM) |  |  |  |  |  |  |  |  | 
CCn1cc(C(=O)O)c(=O)c2cc(F)c(N3CCC(CNC(=O)Nc4ccc(F)cc4F)CC3)c(F)c21 [Compound 18, 7-[4-(2,4-difluorophenyl)aminocarbonylaminomethylpiperidinyl-1] 6,8-difluoro 1-ethyl] | ≤ 0.12 | ≤ 0.12 | 2 (≈ 3.84 µM) | 2 (≈ 3.84 µM) | 2 (≈ 3.84 µM) | 4 (≈ 7.69 µM) | > 16 | > 16 | ≤ 0.12 | ≤ 0.12 | 0.25 (≈ 0.48 µM) | 0.25 (≈ 0.48 µM) |  |  |  |  |  |  |  |  | 
CCn1cc(C(=O)O)c(=O)c2cc(F)c(N3CCC(CN)CC3)c(F)c21 [Compound a, 7-(4-aminomethylpiperidinyl-1) 6,8-difluoro 1-ethyl 4-oxo 1,4-dihydroquinoleinyl-3 carboxylic acid] |  |  |  |  |  |  |  |  |  |  |  |  | 0,25 μg/ml | 0,25 μg/ml | 0,5 μg/ml | 0,5 μg/ml | 0,5 μg/ml | 0,5 μg/ml | 4 (≈ 10.9 µM) | 2 (≈ 5.47 µM) | Minimal bactericidal concentration (MBC) [6]: 0,25 μg/ml; Minimal inhibitory concentration (MIC) [6]: 0,25 μg/ml; Minimal bactericidal concentration (MBC) (S. aureus CB-951): 2 µg/mL (≈ 5.47 µM); Minimal inhibitory concentration (MIC) (S. aureus CB-951): 2 µg/mL (≈ 5.47 µM)
CCn1cc(C(=O)O)c(=O)c2cc(F)c(N3CCC(CN)CC3)c(F)c21 [Compound b, 7-(4-aminomethylpiperidinyl-1) 6,8-difluoro 1-ethyl 4-oxo 1,4-dihydroquinoleinyl-3 carboxylic acid] |  |  |  |  |  |  |  |  |  |  |  |  | 0,5 μg/ml | 0,5 μg/ml | 1 µg/mL (≈ 2.74 µM) | 0,5 μg/ml | 0,5 μg/ml | 0,5 μg/ml | 8 (≈ 21.9 µM) | 4 (≈ 10.9 µM) | Minimal bactericidal concentration (MBC) [6]: 0,5 μg/ml; Minimal inhibitory concentration (MIC) [6]: 0,5 μg/ml; Minimal bactericidal concentration (MBC) (S. aureus CB-951): 4 µg/mL (≈ 10.9 µM); Minimal inhibitory concentration (MIC) (S. aureus CB-951): 4 µg/mL (≈ 10.9 µM)
CCn1cc(C(=O)O)c(=O)c2cc(F)c(N3CCN(C)CC3)cc21 [Pefloxacine, reference compound] | 0.12 (≈ 0.36 µM) | 0.25 (≈ 0.75 µM) | 1 (≈ 3 µM) | 1 (≈ 3 µM) | 0.06 (≈ 0.18 µM) | 0.06 (≈ 0.18 µM) | 2 (≈ 6 µM) | 2 (≈ 6 µM) | 0.06 (≈ 0.18 µM) | 0.06 (≈ 0.18 µM) | 4 (≈ 12 µM) | 4 (≈ 12 µM) |  |  |  |  |  |  |  |  | 
